Data reported in PMC10136135, “Electronic Circular Dichroism Detects Conformational Changes Associated with Proteasome Gating Confirmed Using AFM Imaging” (Biomolecules, 2023).
Where a SMILES comes first, the peptide text is derived from it.

How the values were obtained:
[1] = tested on: T1, h20S (human 20S proteasome); assay: AFM imaging of gate conformers; assay type: binding; settings: 5 mM Tris-HCl pH 7, 1% DMSO; beta5 (ChT-L) site
T1 construct: gene PSMA1; 20S core particle, 28 subunits (alpha-beta-beta-alpha heptameric rings); commercial, Enzo Life Sciences (AFM); H2T4 at the alpha ring gate, Suc-LLVY-MCA at the beta5 (ChT-L) site; with Proteasome subunit beta type-6; Proteasome subunit beta type-7; Proteasome subunit beta type-3; Proteasome subunit beta type-2; Proteasome subunit beta type-1; Proteasome subunit beta type-4

[2] = tested on: T2, yWT20S / y20S WT (wild type yeast 20S proteasome); assay: ECD spectral change (difference spectrum); assay type: binding, Saccharomyces cerevisiae; settings: 25 nM 20S, 150 mM Tris, 100 mM NaCl, pH 7.6, 22 °C; H2T4 1 µM in text, 10 µM in figure legend; allosteric, gate opening
T2 construct: gene SCL1; 20S core particle, 28 subunits (alpha-beta-beta-alpha heptameric rings); with Proteasome subunit beta type-1; Proteasome subunit beta type-2; Proteasome subunit beta type-3; Proteasome subunit beta type-4; Proteasome subunit beta type-5; Proteasome subunit beta type-6; Proteasome subunit beta type-7

[3] = tested on: T1, h20S (human 20S proteasome); assay: AFM imaging of gate conformers; also ECD shift; assay type: binding; settings: 5 mM Tris-HCl pH 7; at least 15 min after addition; control 7 ± 1% open; ECD at 1 µM, 25 nM h20S, pH 7.6, 22 °C; allosteric, gate opening

In the case of `Cc1cc(=O)oc2cc(NC(=O)[C@H](Cc3ccc(O)cc3)NC(=O)[C@@H](NC(=O)[C@H](CC(C)C)NC(=O)[C@H](CC(C)C)NC(=O)CCC(=O)O)C(C)C)ccc12` [SucLLVY-MCA, succinyl-LeuLeuValTyr-7-amino-4-methylcoumarin] (HELM PEPTIDE1{[O=C(O)CCC(=O)[*:2]].L.L.V.Y.[Cc1cc(=O)oc2cc(N[*:1])ccc12]}$$$$V2.0), the “% open conformers at 100 μM” value [1] is reported as “addition of the model substrate or the porphyrin ligand shifted the conformational equilibrium”.
In the case of `C[n+]1ccc(-c2c3nc(c(-c4cc[n+](C)cc4)c4ccc([nH]4)c(-c4cc[n+](C)cc4)c4nc(c(-c5cc[n+](C)cc5)c5ccc2[nH]5)C=C4)C=C3)cc1` [H2T4, 5,10,15,20-tetrakis-4-N-methylpirydyl porphyrin], the “ECD spectral change (difference spectrum)” value [2] is reported as “the addition of H2T4 induces changes in the ECD spectra of yWT20S” and the “% open conformers at 0.2 μM” value [3] is reported as 22 ± 1.3%.
